Measurements taken from paper PMC3612894 (Journal of medicinal chemistry, 2013).

Test system: T. cruzi
Assay: T. cruzi in vitro inhibition assay
Type: cell-based, Trypanosoma cruzi
Conditions: host cells NIH 3T3

## Clc1ccc(COc2cccc(Cn3ccnc3)c2)cc1 [Compound 4j, 1-(3-((4-chlorobenzyl)oxy)benzyl)-1H-imidazole]
  selectivity over host cells: greater than 160 fold

## Cc1cc(Oc2cccc(Cn3ccnc3)c2)cc(C)c1Cl [Compound 4c, 1-(3-(4-chloro-3,5-dimethylphenoxy)benzyl)-1H-imidazole]
  selectivity over host cells: greater than 160 fold
